Measured values taken from paper PMC7918738, “Microtubule Destabilizing Sulfonamides as an Alternative to Taxane-Based Chemotherapy” (International Journal of Molecular Sciences, 2021).

Key:
[1] = system: HeLa (cervix epithelioid carcinoma); assay: Antiproliferative activity against HeLa (XTT colorimetric method); format: cell-based; conditions: Homo sapiens, 72 h treatment
Procedure: The in vitro antiproliferative activity of MDS at 1 µM after 72 h treatments was evaluated by a colorimetric method against the human tumor cell lines HeLa (cervix epithelioid carcinoma) and MCF7 (breast adenocarcinoma). Compounds showing more than 40% inhibition at 1 µM in at least three independent assays were evaluated in a range of concentrations between 0.1 nM and 10 µM for the determination of half-maximal inhibitory concentrations (IC50) (Table 1). Paclitaxel, CA-4, and ABT-751 were used as references.
MCF7 (human breast carcinoma), SKOV-3 (human ovarian carcinoma), OVCAR-3 (human ovarian carcinoma), OVCAR-8 (human ovarian carcinoma), and HeLa (human cervical carcinoma) cell lines were cultured in Dulbecco’s Modified Eagle’s Medium (DMEM) (Gibco, Thermo Fischer Scientific) containing 10% (v/v) heat-inactivated fetal bovine serum (HIFBS) (Lonza-Cambrex, Karlskoga, Sweden), 2 mM L-glutamine (Lonza-Cambrex, Karlskoga, Sweden), 100 μg/mL streptomycin, and 100 IU/mL penicillin (Lonza-Cambrex) at 37 °C in humidified 95% air and 5% CO2. HT-29 (human colon carcinoma), IGROV-1 (human ovarian carcinoma), and A2780 (human ovarian carcinoma) cell lines were cultured in RPMI 1640 medium (Gibco, Thermo Fischer Scientific) supplemented with 10% HIFBS, 100 μg/mL streptomycin, and 100 IU/mL penicillin at 37 °C in humidified 95% air and 5% CO2 atmosphere. The presence of mycoplasma was routinely checked with MycoAlert kit (Lonza-Cambrex) and only mycoplasma-free cells were used in the experiments. Ovarian tumor cell lines were originally acquired from Dr Atanasio Pandiella from Centro de Investigación del Cáncer (CIC), Salamanca, Spain. HeLa, HT-29 and MCF7 tumor cell lines were provided by Dr Faustino Mollinedo from Centro de Investigaciones Biológicas Margarita Salas, Madrid, Spain.
MCF7, HeLa, and HT-29 cell proliferation, when treated with the corresponding compounds, were determined using the XTT (sodium 3’-[1(phenylaminocarbonyl)-3,4-tetrazolium]-bis(4-methoxy-6-nitro)-benzenesulfonic acid hydrate) cell proliferation kit (Roche Molecular Biochemicals, Mannheim, Germany). A freshly prepared mixture of XTT labeling reagent with 0.02% (v/v) PMS (N-methyl-dibenzopyrazine methyl sulfate) electron coupling reagent was added to cells (50 µL/well in 96-well plates, total volume of 160 µL/well). Cells were incubated under standard culture conditions for 4 h (MCF7 and HeLa) or 6 h (HT-29). The absorbance of the formazan product generated was measured at 450 nm using a multi-well plate reader. SKOV-3, OVCAR-3, OVCAR-8, IGROV-1, A-2780 cell proliferation, when treated with the corresponding compound, were determined using MTT (3-(4,5-dimethylthiazol-2-yl)-2,5-diphenyl-2H-tetrazolium bromide) (Sigma-Aldrich, St. Louis, MO, USA). MTT in Phosphate Buffer Saline (PBS) (5 mg/ml) was added to cells (110 µL/well in 24-well plates, total volume of 1110 µL/well). After 1 hour of incubation, the medium was aspirated, and formazan violet crystals were dissolved in dimethyl sulfoxide (DMSO) (500 µL/well). Absorbance was measured at 570 nm in a plate reader (Ultra Evolution, Tecan, Männedorf, Suiza). To determine cell viability, cells in exponential growth phase were seeded (100 µL/well in 96-well plates and 1000 µL/well in 24-well plates) with appropriate cell line concentration (1.5·10^4 cells/mL for MCF7 and HeLa, 3·10^4 cells/mL for HT-29, and 1·10^4 cells/mL for SKOV-3, OVCAR-3, OVCAR-8, IGROV-1, and A-2780) in complete RPMI 1640 or DMEM medium at 37°C and 5% CO2 atmosphere. After 24 h incubation, to allow cells to attach to the plates, all compounds were added at 1 µM concentration and the effect on the proliferation was evaluated 72 h post-treatment. Compounds showing antiproliferative effects at tested concentration were selected for IC50 calculation (50% inhibitory concentration with respect to the untreated controls) from 10^−5 to 10^−10 M concentration. Non-linear curves fitting the experimental data were carried out for each compound. […]

[2] = system: tubulin (microtubular protein isolated from calf brain); assay: Tubulin Polymerization Inhibition (TPI) assay, turbidity; format: biochemical; conditions: 1.5 mg/mL microtubular protein; for TPI % 10 µM: compound at 10 µM
Procedure: The effect of all the synthesized compounds on the in vitro tubulin polymerization was evaluated at 10 µM. All the compounds that inhibited polymerization more than 30% were also assayed at 20 µM. IC50 values were calculated for those compounds inhibiting tubulin polymerization by at least 50% at 20 µM (Table 1 and Supplemental Figure S2).
Microtubular protein was isolated from calf brain according to the modified Shelanski method by two cycles of temperature-dependent assembly/disassembly and stored at −80 °C. Before each use, protein concentration was determined by the Bradford method taking BSA as standard.
Tubulin polymerization was monitored using a Helios α spectrophotometer by measuring the increase in turbidity at 450 nm, caused by a shift from 4 °C to 37 °C, which allows the in vitro microtubular protein to depolymerize and polymerize, respectively. The assay was carried out in quartz cuvettes containing 1.5 mg/mL microtubular protein and the ligand (except for control cuvette with only DMSO at the same concentration) in a mixture of 0.1 M MES buffer, 1 mM EGTA, 1 mM MgCl2, 1 mM β-ME, and 1.5 mM GTP at pH 6.7 (final volume 500 µL). Cuvettes were preincubated at 20 °C for 30 min, to allow ligand binding to tubulin, and subsequently cooled on ice for 10 min. Then, the experiment starts at 4 °C to establish the initial baseline. The assembly process was initiated by a temperature shift to 37 °C and the turbidity produced by tubulin polymerization can be measured by an absorbance increase. After reaching a stable plateau, the temperature was switched back to 4 °C to return to the initial absorption values (to confirm the reversible nature of the monitored process and to determine whether or not the microtubular tubular protein has stabilized). The difference in amplitude between the stable plateau and the initial baseline of the curves was taken as the degree of tubulin polymerization for each experiment. Comparison with control curves under identical conditions but without ligands yielded TPI as a percentage value. All compounds were tested at 10 µM concentration. Compounds that inhibited tubulin polymerization by at least 30% at 10 µM were tested at 20 µM. IC50 values were calculated for compounds that inhibit tubulin polymerization by more than 50% at 20 µM. Compounds were dissolved in DMSO, and the final solvent concentration never exceeded 4% (v/v), which has been reported not to interfere with the assembly process. All the measurements were carried out in at least two independent experiments using microtubular protein from different preparations.

IC50 [1] | IC50 [2] | SMILES | TPI % 10 µM [2]
0.099 µM | > 20 µM | CCOC(=O)CN(c1cc(OC)c(OC)c(OC)c1)S(=O)(=O)c1ccc(N(C)C)cc1 [Compound 33] | 14%
> 1 µM | > 20 µM | COc1cc(N(CC(=O)O)S(=O)(=O)c2ccc(N(C)C)cc2)cc(OC)c1OC [Compound 34] | 6%
0.33 µM | 5.3 µM | COc1cc(N(Cc2ccccc2)S(=O)(=O)c2ccc(N(C)C)cc2)cc(OC)c1OC [Compound 35a] | 72%
> 1 µM | > 20 µM | COc1cc(N(C(=O)OCc2ccccc2)S(=O)(=O)c2ccc(N(C)C)cc2)cc(OC)c1OC [Compound 35b] | 0%
> 1 µM | > 20 µM | COc1cc(NS(=O)(=O)c2ccc(NC=O)cc2)cc(OC)c1OC [Compound 36] | 0%
0.607 µM | > 20 µM | CNc1ccc(S(=O)(=O)Nc2cc(OC)c(OC)c(OC)c2)cc1 [Compound 37] | 7%
0.044 µM | 10 µM | CNc1ccc(S(=O)(=O)N(C)c2cc(OC)c(OC)c(OC)c2)cc1 [Compound 38] | 47%
> 1 µM | > 20 µM | COc1ccc(S(=O)(=O)Nc2cc(OC)c(OC)c(OC)c2)cc1[N+](=O)[O-] [Compound 40] | 0%
0.26 µM | > 20 µM | COc1ccc(S(=O)(=O)Nc2cc(OC)c(OC)c(OC)c2)cc1N [Compound 41] | 15%
0.023 µM | 12 µM | COc1ccc(S(=O)(=O)N(C)c2cc(OC)c(OC)c(OC)c2)cc1N [Compound 42] | 41%
0.038 µM | > 20 µM | CCN(c1cc(OC)c(OC)c(OC)c1)S(=O)(=O)c1ccc(OC)c(N)c1 [Compound 43] | 37%
0.06 µM | > 20 µM | COc1ccc(S(=O)(=O)N(CC#N)c2cc(OC)c(OC)c(OC)c2)cc1N [Compound 44] | 5%
0.025 µM | 3.7 µM | COc1ccc(S(=O)(=O)N(Cc2ccccc2)c2cc(OC)c(OC)c(OC)c2)cc1N [Compound 45] | 75%
0.21 µM | > 20 µM | CCOC(=O)CNc1cc(S(=O)(=O)N(C)c2cc(OC)c(OC)c(OC)c2)ccc1OC [Compound 46] | 13%
> 1 µM | > 20 µM | CCOC(=O)CNc1cc(S(=O)(=O)N(CC(=O)OCC)c2cc(OC)c(OC)c(OC)c2)ccc1OC [Compound 47] | 0%
0.44 µM | > 20 µM | CNc1cc(S(=O)(=O)N(C)c2cc(OC)c(OC)c(OC)c2)ccc1OC [Compound 48a] | 2%

SMILES | IC50 [1] | IC50 [2] | TPI % 10 µM [2]
COc1ccc(S(=O)(=O)N(C)c2cc(OC)c(OC)c(OC)c2)cc1N(C)C [Compound 48b] | > 1 µM | > 20 µM | 0%
